In US10030016B2 (Sunesis Pharmaceuticals, Inc., priority 2009, dated 2018):
Counter-ions that a name gives are not always drawn. Like-named read-outs stand apart in the source and are kept apart here.

Tests used:
PDK1 = PDK1 (Homo sapiens (Human), UniProt O15530); assay: PDK1 kinase assay (coupled PDK1/AKT/FAM-crosstide assay, IMAP fluorescence polarization); type: biochemical
Outline: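 GST-tagged human PDK1 (aa 51-359, 0.75 nM) from insect cells activated unphosphorylated GST-AKT2 (aa 140-467–PIFtide fusion, 10 nM), which phosphorylated 100 nM FAM-crosstide; 40 μM ATP, pH 7.2 Tris/MgCl2, 30 min at 25° C. IMAP fluorescence polarization read-out; ΔmP versus compound concentration fitted with a 4-parameter curve.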

[1] = test system: phospho-akt (Thr308) in PC-3 cells; assay: Inhibition of phospho-akt (Thr308) in PC-3 cells, MSD phospho-akt 308 ELISA kit; type: cell-based; conditions: 2 hours, no serum, read-out: EC50
Outline: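 Read-out is MSD electrochemiluminescence of Akt phosphorylated at Thr308 in lysates of PC-3 cells treated 2 h with compound in serum-free medium. Wortmannin at 5 μM defined the low control and DMSO the high control.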

[2] = inhibition of phospo-PDK1 in vitro
[3] = Homo sapiens, inhibition of P308 Akt in PC-3 cells, MSD
[4] = Homo sapiens, inhibition of P308 Akt in PC-3 cells using MSD
[5] = Homo sapiens, PC-3, 2 h, inhibition of P308 Akt in PC-3 cells, MSD

Chain of PDK1 (O15530 51-359): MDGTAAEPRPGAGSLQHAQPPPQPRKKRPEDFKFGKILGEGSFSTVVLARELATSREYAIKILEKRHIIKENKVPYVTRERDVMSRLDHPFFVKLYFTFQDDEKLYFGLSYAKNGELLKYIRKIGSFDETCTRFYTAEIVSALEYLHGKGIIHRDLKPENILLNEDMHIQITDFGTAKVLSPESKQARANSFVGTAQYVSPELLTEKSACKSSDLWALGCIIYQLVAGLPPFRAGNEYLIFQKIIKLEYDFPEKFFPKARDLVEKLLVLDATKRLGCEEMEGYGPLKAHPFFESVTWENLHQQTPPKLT

Row | IC50 (PDK1; [2]) [nM] | IC50 (PDK1; inhibition of PDK1 in vitro) [nM] | EC50 [1, 4] [nM] | SMILES | also measured
1 | 100 to 1000 |  |  | Nc1ncnc2ccc(-c3ccc(CNc4ncccc4C(=O)NCc4ccccc4)s3)cc12 [Example 3.56, 2-({[5-(4-aminoquinazolin-6-yl)thiophen-2-yl]methyl}amino)-N-benzylpyridine-3-carboxamide (TFA salt)] | EC50 [1, 3]: 1000 to 10000 nM
2 | < 100 |  |  | CC(C)Nc1ncnc2ccc(-c3ccc(CNc4ncccc4C(=O)NCc4ccc(F)c(F)c4)s3)cc12 [Example 4.12, N-(3,4-difluorobenzyl)-2-(((5-(4-(isopropylamino)quinazolin-6-yl)thiophen-2-yl)methyl)amino)nicotinamide] | EC50 [1, 3]: 1000 to 10000 nM
3 | 100 to 1000 |  |  | Nc1ncnc2ccc(-c3ccc(CNc4ncccc4C(=O)NCc4cccc(F)c4F)s3)cc12 [Example 3.10, 2-({[5-(4-aminoquinazolin-6-yl)thiophen-2-yl]methyl}amino)-N-(2,3-difluorobenzyl)pyridine-3-carboxamide (TFA salt)] | EC50 [1, 3]: 1000 to 10000 nM
4 | 1000 to 5000 |  |  | CC(C)Oc1cc(CNc2ncccc2C(=O)NCc2ccc(F)c(F)c2)cc(-c2ccc3ncccc3c2)c1 [Example 5.4, N-(3,4-difluorobenzyl)-2-(3-isopropoxy-5-(quinolin-6-yl)benzylamino) nicotinamide] | EC50 [1, 5]: > 10000 nM
5 | 100 to 1000 |  |  | CNc1cnc2ccc(-c3ccc(CNc4ncccc4C(=O)N[C@@H](C)c4ccc(F)c(F)c4)s3)cc2n1 [Example 4.28, (S)-N-(1-(3,4-difluoro-phenyl)ethyl)-2-(((5-(3-(methyl)amino)quinoxalin-6-yl)thiophen-2-yl)methylamino) nicotinamide] | EC50 [1, 3]: 1000 to 10000 nM
6 | > 5000 |  |  | C[C@H](NC(=O)c1cccnc1NCc1ccc(-c2ccc3ncc(-n4ccnc4)nc3c2)s1)c1ccc(F)c(F)c1 [Example 4.29, (S)-2-(((5-(3-(1H-imidazol-1-yl)quinoxalin-6-yl)thiophen-2-yl)methyl)amino)-N-(1-(3,4-difluorophenyl)ethyl) nicotinamide] | EC50 [1, 3]: > 10000 nM
7 | < 100 |  |  | Nc1ncnc2ccc(-c3ccc(CNc4ncccc4C(=O)NCc4cc(F)c(F)cc4F)s3)cc12 [Example 3.11, 2-({[5-(4-aminoquinazolin-6-yl)thiophen-2-yl]methyl}amino)-N-(2,4,5-trifluorobenzyl)pyridine-3-carboxamide (TFA salt)] | EC50 [1, 3]: > 10000 nM

Further lines, the compound ahead of its results:

Row | SMILES | IC50 (PDK1; [2]) [nM] | IC50 (PDK1; inhibition of PDK1 in vitro) [nM] | EC50 [1, 4] [nM] | also measured
8 | C[C@H](NC(=O)c1cc(C#N)cnc1NCc1ccc(-c2cnc(N)c(O[C@H]3CCC[C@@H]3N)n2)cc1)c1ccc(F)cc1 [Example 168, 2-{4-[5-Amino-6-((1S,2S)-2-amino-cyclopentyloxy)-pyrazin-2-yl]-benzylamino}-5-cyano-N-[(S)-1-(4-fluoro-phenyl)-ethyl]-nicotinamide] |  | < 100 | 1000 to 10000 | 
9 | C[C@H](NC(=O)c1cc(C#N)cnc1NCc1cnc(-c2cnc3[nH]ncc3c2)nc1)c1ccc(F)cc1 [Example 69, 5-Cyano-N-[(S)-1-(4-fluoro-phenyl)-ethyl]-2-{[2-(1H-pyrazolo[3,4-b]pyridin-5-yl)-pyrimidin-5-ylmethyl]-amino}-nicotinamide] |  | 100 to 1000 | > 10000 | 
10 | CNc1ccc(-c2ccc(CNc3ncc(C#N)cc3C(=O)N[C@@H](C)c3ccc(F)cc3)cc2)cn1 [Example 141] |  | < 100 | 1000 to 10000 | 
11 | C[C@@H](Nc1ncc(C(F)(F)F)nc1C(=O)Nc1ccc(F)cc1)c1ccc(-c2cnc3[nH]nc(N)c3c2)cc1 [Example 421, (R)-3-(1-(4-(3-amino-1H-pyrazolo[3,4-b]pyridin-5-yl)phenyl)ethylamino)-N-(4-fluorophenyl)-6-(trifluoromethyl)pyrazine-2-carboxamide] |  | < 100 | < 1000 | 
12 | CNc1ncc2cc(O[C@H](C)CNc3ncc(C#N)nc3C(=O)N[C@@H](C)c3ccc(F)c(F)c3)ccc2n1 [Example 252, 6-cyano-N-((S)-1-(3,4-difluorophenyl)ethyl)-3-((R)-2-(2-(methylamino)quinazolin-6-yloxy)propylamino)pyrazine-2-carboxamide] |  | 100 to 1000 |  | EC50 ([1]; Homo sapiens, PC-3, 2 h, inhibition of P308 Akt in PC-3 cells using MSD): 1000 to 10000 nM
13 | O=C(NCc1ccc(F)c(F)c1)c1cccnc1NCCOc1ccc2c(c1)[nH]c1ncccc12 [Example 21, 2-(2-(9H-pyrido[2,3-b]indol-7-yloxy)ethylamino)-N-(3,4-difluorobenzyl)nicotinamide] | < 100 |  |  | EC50 [1, 3]: 1000 to 10000 nM
14 | C[C@H](NC(=O)c1cccnc1NCc1ncc(-c2ccc3ncc4ncn(C)c4c3c2)s1)c1ccc(F)c(F)c1 [Example 385, N-[(S)-1-(3,4-Difluoro-phenyl)-ethyl]-2-{[5-(1-methyl-1H-imidazo[4,5-c]quinolin-8-yl)-thiazol-2-ylmethyl]-amino}-nicotinamide] |  | < 100 | < 1000 | 
15 | C[C@H](NC(=O)c1nccnc1NCc1ccc(-c2cnc3[nH]ncc3c2)cc1)c1ccc(F)cc1 [Example 391, 3-[4-(1H-Pyrazolo[3,4-b]pyridin-5-yl)-benzylamino]-pyrazine-2-carboxylic acid [(S)-1-(4-fluoro-phenyl)-ethyl]-amide] |  | < 100 | 1000 to 10000 | 
16 | C[C@H](NC(=O)c1nc(C#N)cnc1NCc1ccc(-c2cnc3[nH]c(=O)[nH]c3c2)cc1)c1ccc(F)c(F)c1 [Example 363, (S)-6-cyano-N-(1-(3,4-difluorophenyl)ethyl)-3-(4-(2-oxo-2,3-dihydro-1H-imidazo[4,5-b]pyridin-6-yl)benzylamino)-pyrazine-2-carboxamide] |  | < 100 | < 1000 | 
17 | C[C@H](NC(=O)c1cc(C#N)cnc1NCc1ccc(-c2cnc(N)c(OC(F)F)c2)cc1)c1ccc(F)cc1 [Example 134, (S)-2-(4-(6-amino-5-(difluoromethoxy)pyridin-3-yl)benzylamino)-5-cyano-N-(1-(4-fluorophenyl)ethyl)nicotinamide] |  | < 100 | < 1000 | 
18 | C[C@H](NC(=O)c1cc(C#N)cnc1NCc1ccc(-c2ccc(N)nc2)cc1)c1ccc(F)cc1 [Example 106, (S)-2-(4-(6-aminopyridin-3-yl)benzylamino)-5-cyano-N-(1-(4-fluorophenyl)ethyl) nicotinamide] |  | < 100 | < 1000 | 
19 | NCCNc1n[nH]c2ncc(-c3ccc(CNc4ncc(C(F)(F)F)cc4C(=O)NCc4ccc(F)c(F)c4)cc3)cc12 [Example 153, 2-(4-(3-(2-amino-ethylamino)-1H-pyrazolo [3,4-b]pyridin-5-yl)benzylamino)-N-(3,4-difluorobenzyl)-5-(trifluoromethyl) nicotinamide] |  | < 100 | 1000 to 10000 | 
20 | O=C(NCc1ccc(F)c(F)c1)c1cccnc1NCc1ccc(-c2c[nH]c3ncccc23)s1 [Example 1.17, 2-(((5-(1H-pyrrolo[2,3-b]pyridin-3-yl)thiophen-2-yl)methyl)amino)-N-(3,4-difluorobenzyl)nicotinamide] | 100 to 1000 |  |  | EC50 [1, 5]: > 10000 nM
21 | O=C(c1cccnc1NCc1cccc(-c2c[nH]c3ncccc23)c1)N1CCCCC1 [Example 1.13, Piperidin-1-yl(2-{[3-(1H-pyrrolo [2,3-b]pyridin-3-yl)benzyl]amino}pyridin-3-yl)methanone] | > 5000 |  |  | EC50 [1, 3]: > 10000 nM
22 | O=C(NCc1ccc(F)c(F)c1)c1cccnc1NCc1ccc(-c2cnc3[nH]ccc3c2)s1 [Example 2.31, 2-(((5-(1H-pyrrolo[2,3-b]pyridin-5-yl)thiophen-2-yl)methyl)amino)-N-(3,4-difluorobenzyl) nicotinamide] | 100 to 1000 |  |  | EC50 ([1]; inhibition of P308 Akt in PC-3 cells, MSD): 1000 to 10000 nM
23 | C[C@H](NC(=O)c1cc(C#N)cnc1NCc1ccc(-c2ccnc(C#N)c2)cc1)c1ccc(F)cc1 [Example 108, (S)-5-cyano-2-(4-(2-cyanopyridin-4-yl)benzylamino)-N-(1-(4-fluorophenyl)ethyl)nicotinamide] |  | > 5000 | > 10000 | 
24 | CC(=O)Nc1ccc(-c2ccc(CNc3ncc(C#N)cc3C(=O)N[C@@H](C)c3ccc(F)cc3)cc2)cn1 [Example 105, (S)-2-(4-(6-acetamido-pyridin-3-yl)benzylamino)-5-cyano-N-(1-(4-fluorophenyl)ethyl) nicotinamide] |  | < 100 | < 1000 | 
25 | C[C@H](NC(=O)c1cccnc1NCc1ccc(-c2cnc3[nH]c(=O)[nH]c3c2)cc1)c1ccc(F)c(F)c1 [Example 366, (S)-N-(1-(3,4-difluorophenyl)ethyl)-2-(4-(2-oxo-2,3-dihydro-1H-imidazo[4,5-b]pyridin-6-yl)benzylamino) nicotinamide] |  | < 100 | < 1000 | 
26 | C[C@H](NC(=O)c1cc(C#N)cnc1NCc1ccc(-c2cnc(N)c(-c3cccc(N)c3)n2)cc1)c1ccc(F)cc1 [Example 237, 2-{4-[5-Amino-6-(3-amino-phenyl)-pyrazin-2-yl]-benzylamino}-5-cyano-N-[(S)-1-(4-fluoro-phenyl)-ethyl]-nicotinamide] |  | < 100 | < 1000 | 
27 | Nc1ncc(-c2ccc(CNc3ncc(C(F)(F)F)cc3C(=O)Nc3ccc(F)cc3)cc2)nc1N1CCNCC1 [Example 193, 2-[4-(3′-Amino-3,4,5,6-tetrahydro-2H-[1,2′]bipyrazinyl-6′-yl)-benzylamino]-N-(4-fluoro-phenyl)-5-trifluoromethyl-nicotinamide] |  | < 100 | 1000 to 10000 | 
